Data as given in patent publication US4378358A, “Benzothiazinopyrazoles having pharmacological activity” (Mediolanum Farmaceutici s.r.l., priority 1980, dated 1983).
Read-outs that look alike come from different tables or passages of the source.

Columns and labels:
in vivo [1] = conditions: mouse, po
carrageenin paw edema = test: Antiinflammatory activity according to Winter et al., carrageenin paw edema, modified; assay type: in vivo, rat
Protocol: Antiinflammatory activity according to WINTER et al., Proc. Soc. Exp. Biol. Med.; 111, 544; 1962.
The test was modified in that the injection of carrageenin and the administration of the compound by gastric gavage were carried out simultaneously and the paw edema was measured at the plethysmograph after 4 hours.
Animals: 6 female rats for each group, average body weight: 150g

Rat [2] = test: in vivo; assay type: in vivo; conditions: per os
in vivo [3] = assay type: in vivo; conditions: rat, in vivo, po; read-out: LD 50 (Litchfield and Wilcoxon)
pyresis = test: Antipyretic activity according to Burn et al.; assay type: in vivo, rat; conditions: for Reduction of the pyresis at hour 4: female rats
Excerpt: Animals: 6 female rats for each group, average body weight 200 g.

rats [4] = assay type: in vivo, rat; conditions: for Average number of lesions per animal: 100 mg/kg (maximum tested dose); for Average number of lesions per animal / Gastrolesive effect, relative potency to naproxen / Gastrolesive effect, relative potency to piroxicam: single oral administration, male rats
Protocol: The test was modified by increasing the fast period to 70 hours and giving the total dose of substance in one single oral administration.
Animals: 10 male rats for each group, average body weight: 150g.

rats [5] = test: in vivo; conditions: 5 days, rats, per os
Excerpt: (§1) Five days subacute toxicity in rats per os
(§2) Animals: 5 female rats for each group, average body weight: 150g.

in vivo [6] = conditions: rat, in vivo, po
Excerpt: as §1, §2

phenylquinone writhes = test: Analgesic activity according to Hendershot et al., phenylquinone writhes, modified; assay type: in vivo, mouse
Protocol: Analgesic activity according to HENDERSHOT et al., Jour. Pharm.
The test was modified by numbering the writhes only along the time interval from 5 to 15 minutes since the injection of phenylquinone. The injection was made 2 hours after the oral administration of the compound to be tested.
Animals: 8 female mice for each group, average body weight: 25g

Rat [7] = conditions: per os, literature value (footnotes a, b); cited from earlier work
[8] = Rattus norvegicus, po, 4 h, 50 mg/kg per os, female rats, read-out: % inhibition of the edema after 4 hours
[9] = Rattus norvegicus, po, 4 h, 100 mg/kg per os, female rats, read-out: % inhibition of the edema after 4 hours
[10] = 50 mg/g (so in the source) per os
[11] = 100 mg/g (so in the source) per os
[12] = Mus musculus, 50 mg/kg oral, 2 h before phenylquinone, 5-15 min, female mice
[13] = Mus musculus, 100 mg/kg oral, 2 h before phenylquinone, 5-15 min, female mice
[14] = 200 mg/kg/day, read-out: % of dead animals

Compound: CN(C)CCCNC(=O)c1nn(-c2cccc(F)c2)c2c1N(C)S(=O)(=O)c1ccccc1-2 [Compound I-21]
- LD50 (in vivo [1]): 1520 mg/kg
- Antiinflammatory relative potency to naproxen (carrageenin paw edema; 50 mg/kg per os): 0.6
- Antiinflammatory relative potency to piroxicam (carrageenin paw edema; 50 mg/kg per os): 0.3
- Antiinflammatory relative potency to naproxen (carrageenin paw edema; 100 mg/kg per os): 0.9
- Antiinflammatory relative potency to piroxicam (carrageenin paw edema; 100 mg/kg per os): 0.4
- inhibition in vivo at 50 mg/kg (carrageenin paw edema; [8]): 12%
- inhibition in vivo at 100 mg/kg (carrageenin paw edema; [9]): 19%
- LD 50, relative ratio to naproxen (Mouse; per os): 1.2
- LD 50, relative ratio to piroxicam (Mouse; per os): 4.2
- LD 50, relative ratio to naproxen (Rat [2]): 4.2
- LD 50, relative ratio to piroxicam (Rat [2]): 8.4
- LD50 (in vivo [3]): 2260 mg/kg
- Antipyretic relative potency to naproxen (pyresis; [10]): 0.4
- Antipyretic relative potency to piroxicam (pyresis; [10]): 0.5
- Reduction of the pyresis at hour 4 (pyresis; [10]): 0.47 °C
- Antipyretic relative potency to naproxen (pyresis; [11]): 0.7
- Antipyretic relative potency to piroxicam (pyresis; [11]): 0.8
- Reduction of the pyresis at hour 4 (pyresis; [11]): 0.75 °C
- Average number of lesions per animal (rats [4]): 0
- Gastrolesive effect, relative potency to naproxen (rats [4]): > 20
- Gastrolesive effect, relative potency to piroxicam (rats [4]): 100
- Subacute toxicity, relative ratio to naproxen (rats [5]): 7
- Subacute toxicity, relative ratio to piroxicam (rats [5]): 17
- mortality at 120 h (in vivo [6]; 350 mg/kg/day, read-out: % of dead animals): 0%
- Analgesic relative potency to naproxen (phenylquinone writhes; 50 mg/kg oral): 1.4
- Analgesic relative potency to piroxicam (phenylquinone writhes; 50 mg/kg oral): 1.0
- Analgesic relative potency to naproxen (phenylquinone writhes; 100 mg/kg oral): 2.0
- Analgesic relative potency to piroxicam (phenylquinone writhes; 100 mg/kg oral): 1.4
- inhibition in vivo at 50 mg/kg (phenylquinone writhes; [12]): 47%
- inhibition in vivo at 100 mg/kg (phenylquinone writhes; [13]): 65%

Compound: CN1c2c(C(=O)NCCCNC3CCCCC3)nn(-c3cccc(F)c3)c2-c2ccccc2S1(=O)=O [Compound I-23]
- LD50 (in vivo [1]): 720 mg/kg
- Antiinflammatory relative potency to naproxen (carrageenin paw edema; 50 mg/kg per os): 1.3
- Antiinflammatory relative potency to piroxicam (carrageenin paw edema; 50 mg/kg per os): 0.6
- Antiinflammatory relative potency to naproxen (carrageenin paw edema; 100 mg/kg per os): 1.8
- Antiinflammatory relative potency to piroxicam (carrageenin paw edema; 100 mg/kg per os): 0.8
- inhibition in vivo at 50 mg/kg (carrageenin paw edema; [8]): 27%
- inhibition in vivo at 100 mg/kg (carrageenin paw edema; [9]): 38%
- LD 50, relative ratio to piroxicam (Mouse; in vivo): 2.0
- LD 50, relative ratio to naproxen (Rat [2]): 2.2
- LD 50, relative ratio to piroxicam (Rat [2]): 4.4
- LD50 (in vivo [3]): 1200 mg/kg
- Antipyretic relative potency to naproxen (pyresis; [10]): 1.1
- Antipyretic relative potency to piroxicam (pyresis; [10]): 1.3
- Reduction of the pyresis at hour 4 (pyresis; [10]): 1.20 °C
- Antipyretic relative potency to naproxen (pyresis; [11]): 1.3
- Antipyretic relative potency to piroxicam (pyresis; [11]): 1.6
- Reduction of the pyresis at hour 4 (pyresis; [11]): 1.42 °C
- Average number of lesions per animal (rats [4]): 0
- Gastrolesive effect, relative potency to naproxen (rats [4]): > 20
- Gastrolesive effect, relative potency to piroxicam (rats [4]): 100
- Subacute toxicity, relative ratio to naproxen (rats [5]): 4
- Subacute toxicity, relative ratio to piroxicam (rats [5]): 10
- mortality at 120 h (in vivo [6]; [14]): 0%
- Analgesic relative potency to naproxen (phenylquinone writhes; 50 mg/kg oral): 1.6
- Analgesic relative potency to piroxicam (phenylquinone writhes; 50 mg/kg oral): 1.2
- Analgesic relative potency to naproxen (phenylquinone writhes; 100 mg/kg oral): 2.4
- Analgesic relative potency to piroxicam (phenylquinone writhes; 100 mg/kg oral): 1.7
- inhibition in vivo at 50 mg/kg (phenylquinone writhes; [12]): 54%
- inhibition in vivo at 100 mg/kg (phenylquinone writhes; [13]): 79%

Compound: CCN1CCCC1CNC(=O)c1nn(-c2ccccc2)c2c1N(C)S(=O)(=O)c1ccccc1-2 (stereo not drawn) [Compound I-24]
- LD50 (in vivo [1]): 760 mg/kg
- Antiinflammatory relative potency to naproxen (carrageenin paw edema; 50 mg/kg per os): 1.8
- Antiinflammatory relative potency to piroxicam (carrageenin paw edema; 50 mg/kg per os): 0.8
- Antiinflammatory relative potency to naproxen (carrageenin paw edema; 100 mg/kg per os): 2.1
- Antiinflammatory relative potency to piroxicam (carrageenin paw edema; 100 mg/kg per os): 1.0
- inhibition in vivo at 50 mg/kg (carrageenin paw edema; [8]): 38%
- inhibition in vivo at 100 mg/kg (carrageenin paw edema; [9]): 45%
- LD 50, relative ratio to piroxicam (Mouse; per os): 2.1
- LD 50, relative ratio to piroxicam (Rat [2]): 3.9
- LD50 (in vivo [3]): 1060 mg/kg
- Antipyretic relative potency to naproxen (pyresis; [10]): 0.7
- Antipyretic relative potency to piroxicam (pyresis; [10]): 0.9
- Reduction of the pyresis at hour 4 (pyresis; [10]): 0.81 °C
- Antipyretic relative potency to naproxen (pyresis; [11]): 1.1
- Antipyretic relative potency to piroxicam (pyresis; [11]): 1.4
- Reduction of the pyresis at hour 4 (pyresis; [11]): 1.24 °C
- Average number of lesions per animal (rats [4]): 0
- Gastrolesive effect, relative potency to naproxen (rats [4]): > 20
- Gastrolesive effect, relative potency to piroxicam (rats [4]): 100
- Subacute toxicity, relative ratio to naproxen (rats [5]): 4
- Subacute toxicity, relative ratio to piroxicam (rats [5]): 10
- mortality at 120 h (in vivo [6]; [14]): 0%
- Analgesic relative potency to naproxen (phenylquinone writhes; 50 mg/kg oral): 0.9
- Analgesic relative potency to piroxicam (phenylquinone writhes; 50 mg/kg oral): 0.7
- Analgesic relative potency to naproxen (phenylquinone writhes; 100 mg/kg oral): 1.4
- Analgesic relative potency to piroxicam (phenylquinone writhes; 100 mg/kg oral): 1.0
- inhibition in vivo at 50 mg/kg (phenylquinone writhes; [12]): 30%
- inhibition in vivo at 100 mg/kg (phenylquinone writhes; [13]): 47%

Compound: CN1C(C(=O)Nc2ccccn2)=C(O)c2ccccc2S1(=O)=O [Piroxicam, piroxicam, reference compound]
- inhibition in vivo at 10 mg/kg (carrageenin paw edema; Rattus norvegicus, po, 4 h, 10 mg/kg per os, female rats, read-out: % inhibition of the edema after 4 hours): 45%
- LD 50, relative ratio to piroxicam (Mouse; per os): 1
- LD 50, relative ratio to piroxicam (Rat [2]): 1
- LD 50 (Litchfield and Wilcoxon) (Rat [7]): 270 mg/kg
- Reduction of the pyresis at hour 4 (pyresis; 10 mg/g (so in the source) per os): 0.89 °C
- Gastrolesive effect, relative potency to piroxicam (rats [4]): 1
- Gastric ulcerogenicity (in words) (rats [4]; rat, in vivo): considerable gastrolesive power
- Subacute toxicity, relative ratio to piroxicam (rats [5]): 1
- mortality at 120 h (in vivo [6]; 20 mg/kg/day): 0%
- mortality (in vivo [6]; 30 mg/kg/day): 6%
- mortality at 120 h (in vivo [6]; 30 mg/kg/day): 40%
- inhibition in vivo at 10 mg/kg (phenylquinone writhes; Mus musculus, 10 mg/kg oral, 2 h before phenylquinone, 5-15 min, female mice): 46%
